Measured values as given in patent US10577334B2, “Crystalline form E of tafamidis meglumine, process for preparation and use thereof” (Crystal Pharmatech Co., Ltd., priority 2016, dated 2020).
Counter-ions that a name gives are not always drawn. Like-named read-outs stand apart in the source and are kept apart here.

Key:
[1] = converts to liquid crystalline form B spontaneously when stored for some time; cited from earlier work
[2] = cited from earlier work
[3] = Stability of solid form on storage, checked by XRPD; assay type: physicochemical; conditions: for Final Solid Form: 11 months, XRPD
Experimental: Solid samples of Form E were stored under conditions of 25° C./60% relative humidity (RH) and 40° C./75% RH for 11 months and XRPD were tested. The XRPD patterns before and after storage were substantially as depicted in FIG. 7.
Form E remains stable for at least 11 months under conditions of 25° C./60% RH and 40° C./75% RH. […] The XRPD patterns overlay are substantially as depicted in FIG. 7, in which the top, middle and bottom patterns correspond to the initial sample, sample stored at 25° C./60% RH for 11 months and sample stored at 40° C./75% RH for 11 months, respectively.

[4] = Hygroscopicity by dynamic vapor sorption (DVS); assay type: physicochemical; conditions: for Hygroscopicity class: Chinese Pharmacopoeia 2015 guideline 9103, 25° C.; for Weight gain under 80% Relative Humidity: about 10 mg sample
Experimental: Dynamic vapor sorption (DVS) was applied to assess hygroscopicity of Form E and Form M in patent CN103781770B with about 10 mg of samples. The DVS plots of Form E and Form M were substantially as depicted in FIG. 8 and FIG. 9, respectively.
About hygroscopicity characterization description and definition of hygroscopicity (Chinese Pharmacopoeia 2015 edition general notices 9103 Drug hygroscopicity test guidelines, test at 25° C.+/−1° C., 80% Relative Humidity). • deliquescent: Sufficient water is absorbed to form a liquid; • very hygroscopic: Increase in mass is equal to or greater than 15 percent; • hygroscopic: Increase in mass is less than 15 percent and equal to or greater than 2 percent; • slightly hygroscopic: Increase in mass is less than 2 percent and equal to or greater than 0.2 percent. • no or almost no hygroscopic: Increase in mass is less than 0.2%.

For `O=C(O)c1ccc2nc(-c3cc(Cl)cc(Cl)c3)oc2c1` [amorphous form A, 6-carboxy-2-(3,5-dichlorophenyl)-benzoxazole meglumine salt], the “Stability (in words)” value [1] is given as “poor stability”.
For `O=C(O)c1ccc2nc(-c3cc(Cl)cc(Cl)c3)oc2c1` [Liquid crystalline form B, 6-carboxy-2-(3,5-dichlorophenyl)-benzoxazole meglumine salt], the “Weight gain when stored at 90% relative humidity” value ([2]; 90% relative humidity) is given as “up to 25%” and the “Hygroscopicity (in words)” value ([2]; prior-art description) is given as “highly deliquescent”.
In the case of `O=C(O)c1ccc2nc(-c3cc(Cl)cc(Cl)c3)oc2c1` [Form E, 6-carboxy-2-(3,5-dichlorophenyl)-benzoxazole meglumine salt], the “Time the form remains stable” value ([3]; 25° C./60% RH and 40° C./75% RH) is reported as “at least 11 months”, the “Final Solid Form” value ([3]; 25° C./60% RH) is reported as “Form E” and the “Final Solid Form” value ([3]; 40° C./75% RH) is reported as “Form E”. The Hygroscopicity class ([4]; 80% RH) was “slightly hygroscopic (Increase in mass is less than 2 percent and equal to or greater than 0.2 percent)” and the “Weight gain under 80% Relative Humidity” value ([4]; DVS, 80% RH) was 1.82%.
With `O=C(O)c1ccc2nc(-c3cc(Cl)cc(Cl)c3)oc2c1` [Form M, 6-carboxy-2-(3,5-dichlorophenyl)-benzoxazole meglumine salt] the Hygroscopicity class ([4]; 80% RH) was “hygroscopic (Increase in mass is less than 15 percent and equal to or greater than 2 percent)”, the “Weight gain under 75% RH” value ([4]; DVS, 75% RH) was 2.98% and the “Weight gain under 80% Relative Humidity” value ([4]; DVS, 80% RH) was 2.98%-4.65%. For the same molecule, the “Weight gain under 80% RH, inferred from FIG. 8” value ([4]; DVS, 80% RH, inferred from the 75% RH value) was greater than 2.98% and the “Hygroscopicity (in words)” value ([4]; background statement, "Studies show") was “high”.
